Measurements: ChEMBL document CHEMBL4043168, “The design and SAR of a novel series of 2-aminopyridine based LRRK2 inhibitors” (Bioorg Med Chem Lett, 2017)

Key:
[1] = molecular target: 5'-AMP-activated protein kinase catalytic subunit alpha-1 (Homo sapiens) (UniProt Q13131); assay: Inhibition of AMPKa1 ATP loop (IGHYILGDTLGVGTFGKVK) in human PBMC at 1 uM; settings: pooled result: one value given for 5 cell lines, strains, targets or settings
[2] = molecular target: Mitogen-activated protein kinase kinase kinase 3 (Homo sapiens) (UniProt Q99759); assay: Inhibition of MAP3K3 conserved Lys2 (DIKGANILR) in human PBMC at 0.1 uM
[3] = molecular target: Serine/threonine-protein kinase ULK1 (Homo sapiens) (UniProt O75385); assay: Inhibition of ULK1 conserved Lys2 (DLKPQNILLSNPAGR) in human PBMC at 1 uM
Chain of Serine/threonine-protein kinase ULK1 (Homo sapiens) (O75385 whole entry): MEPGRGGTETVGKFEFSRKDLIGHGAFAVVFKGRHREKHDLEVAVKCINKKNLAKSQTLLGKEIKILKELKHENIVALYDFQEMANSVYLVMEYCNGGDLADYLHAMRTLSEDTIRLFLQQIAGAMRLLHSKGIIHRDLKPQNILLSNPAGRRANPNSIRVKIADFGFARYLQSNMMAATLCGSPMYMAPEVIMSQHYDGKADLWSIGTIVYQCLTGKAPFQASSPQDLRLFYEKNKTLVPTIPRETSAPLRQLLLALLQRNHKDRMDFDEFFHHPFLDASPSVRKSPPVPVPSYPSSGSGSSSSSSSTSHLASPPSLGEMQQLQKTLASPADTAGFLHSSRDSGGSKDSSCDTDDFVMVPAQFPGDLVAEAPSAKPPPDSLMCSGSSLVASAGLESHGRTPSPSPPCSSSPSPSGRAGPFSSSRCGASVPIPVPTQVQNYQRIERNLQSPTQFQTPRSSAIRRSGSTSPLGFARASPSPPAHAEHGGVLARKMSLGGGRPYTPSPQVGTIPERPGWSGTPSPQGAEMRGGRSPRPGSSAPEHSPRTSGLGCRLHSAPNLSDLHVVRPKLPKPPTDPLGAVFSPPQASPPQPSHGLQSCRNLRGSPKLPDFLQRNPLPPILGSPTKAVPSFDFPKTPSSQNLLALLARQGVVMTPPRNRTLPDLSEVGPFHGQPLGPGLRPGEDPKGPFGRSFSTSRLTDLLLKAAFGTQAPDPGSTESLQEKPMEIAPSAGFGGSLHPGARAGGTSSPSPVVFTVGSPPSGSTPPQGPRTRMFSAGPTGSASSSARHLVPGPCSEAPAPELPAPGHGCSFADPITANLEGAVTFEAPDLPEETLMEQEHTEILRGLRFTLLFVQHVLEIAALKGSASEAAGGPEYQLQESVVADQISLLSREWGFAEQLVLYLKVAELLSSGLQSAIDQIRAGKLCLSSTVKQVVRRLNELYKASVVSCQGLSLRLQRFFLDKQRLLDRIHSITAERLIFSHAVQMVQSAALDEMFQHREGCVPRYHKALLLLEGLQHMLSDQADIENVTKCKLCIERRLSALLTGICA

[4] = molecular target: T1, Serine/threonine-protein kinase LATS1 (Homo sapiens) (UniProt O95835); assay: Inhibition of LATS1 conserved Lys1 (ALYATKTLR) in human PBMC at 0.1 uM
T1 sequence (whole entry): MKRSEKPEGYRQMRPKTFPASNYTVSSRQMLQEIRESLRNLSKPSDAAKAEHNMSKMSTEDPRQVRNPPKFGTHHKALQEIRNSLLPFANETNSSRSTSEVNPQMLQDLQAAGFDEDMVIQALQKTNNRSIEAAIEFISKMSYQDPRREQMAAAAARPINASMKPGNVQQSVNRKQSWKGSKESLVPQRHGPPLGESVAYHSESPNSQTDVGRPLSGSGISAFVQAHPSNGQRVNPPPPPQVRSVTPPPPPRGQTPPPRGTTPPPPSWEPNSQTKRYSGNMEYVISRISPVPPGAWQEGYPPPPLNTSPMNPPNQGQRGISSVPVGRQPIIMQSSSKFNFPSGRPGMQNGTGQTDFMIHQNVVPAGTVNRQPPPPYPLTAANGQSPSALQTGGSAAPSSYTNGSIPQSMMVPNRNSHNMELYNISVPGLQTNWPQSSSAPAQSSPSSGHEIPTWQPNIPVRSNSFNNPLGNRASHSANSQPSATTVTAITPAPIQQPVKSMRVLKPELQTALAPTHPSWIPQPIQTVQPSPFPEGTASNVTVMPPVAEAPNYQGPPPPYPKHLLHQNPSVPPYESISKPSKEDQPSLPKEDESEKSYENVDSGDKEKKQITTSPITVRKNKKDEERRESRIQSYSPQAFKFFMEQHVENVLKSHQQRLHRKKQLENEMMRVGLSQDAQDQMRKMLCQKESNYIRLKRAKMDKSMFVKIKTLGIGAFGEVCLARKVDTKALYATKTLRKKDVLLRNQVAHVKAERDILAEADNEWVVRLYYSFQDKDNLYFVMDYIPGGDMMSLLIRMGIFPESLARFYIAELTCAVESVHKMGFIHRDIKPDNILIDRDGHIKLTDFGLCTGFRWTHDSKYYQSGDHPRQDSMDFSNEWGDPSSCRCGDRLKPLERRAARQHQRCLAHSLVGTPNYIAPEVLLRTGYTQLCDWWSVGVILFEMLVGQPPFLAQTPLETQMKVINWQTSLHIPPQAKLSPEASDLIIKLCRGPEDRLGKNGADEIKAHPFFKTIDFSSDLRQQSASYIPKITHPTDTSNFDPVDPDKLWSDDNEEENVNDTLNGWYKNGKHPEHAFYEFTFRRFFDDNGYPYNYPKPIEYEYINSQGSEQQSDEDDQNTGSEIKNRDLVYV

[5] = molecular target: MAP/microtubule affinity-regulating kinase 3 (Homo sapiens) (UniProt P27448); assay: Inhibition of MARK3 conserved Lys1 (EVAIKIIDK) in human PBMC at 0.1 uM
Chain of MAP/microtubule affinity-regulating kinase 3 (Homo sapiens) (P27448 whole entry, looked up): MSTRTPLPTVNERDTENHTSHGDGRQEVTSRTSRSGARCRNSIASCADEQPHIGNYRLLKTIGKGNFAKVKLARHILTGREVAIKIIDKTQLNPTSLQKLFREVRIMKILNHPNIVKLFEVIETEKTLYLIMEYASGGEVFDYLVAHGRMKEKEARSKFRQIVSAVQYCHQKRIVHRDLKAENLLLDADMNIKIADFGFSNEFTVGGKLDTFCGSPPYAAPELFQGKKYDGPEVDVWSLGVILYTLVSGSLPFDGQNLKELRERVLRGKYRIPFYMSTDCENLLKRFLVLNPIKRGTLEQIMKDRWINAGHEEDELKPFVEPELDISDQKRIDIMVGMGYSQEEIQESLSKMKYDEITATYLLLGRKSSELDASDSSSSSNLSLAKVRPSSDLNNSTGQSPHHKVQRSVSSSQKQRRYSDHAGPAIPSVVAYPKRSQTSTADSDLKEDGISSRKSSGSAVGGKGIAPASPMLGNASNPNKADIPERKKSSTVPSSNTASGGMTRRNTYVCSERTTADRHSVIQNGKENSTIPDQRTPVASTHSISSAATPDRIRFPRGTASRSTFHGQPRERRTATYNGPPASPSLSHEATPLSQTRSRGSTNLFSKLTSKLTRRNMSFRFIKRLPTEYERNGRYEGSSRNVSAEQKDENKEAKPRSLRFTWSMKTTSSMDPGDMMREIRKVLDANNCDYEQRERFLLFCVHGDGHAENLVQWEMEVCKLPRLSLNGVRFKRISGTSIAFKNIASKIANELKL

[6] = molecular target: Mitogen-activated protein kinase kinase kinase kinase 5 (Homo sapiens) (UniProt Q9Y4K4); assay: Inhibition of KHS1 conserved Lys1 (NVHTGELAAVKIIK) in human PBMC at 1 uM
Chain of Mitogen-activated protein kinase kinase kinase kinase 5 (Homo sapiens) (Q9Y4K4 whole entry, looked up): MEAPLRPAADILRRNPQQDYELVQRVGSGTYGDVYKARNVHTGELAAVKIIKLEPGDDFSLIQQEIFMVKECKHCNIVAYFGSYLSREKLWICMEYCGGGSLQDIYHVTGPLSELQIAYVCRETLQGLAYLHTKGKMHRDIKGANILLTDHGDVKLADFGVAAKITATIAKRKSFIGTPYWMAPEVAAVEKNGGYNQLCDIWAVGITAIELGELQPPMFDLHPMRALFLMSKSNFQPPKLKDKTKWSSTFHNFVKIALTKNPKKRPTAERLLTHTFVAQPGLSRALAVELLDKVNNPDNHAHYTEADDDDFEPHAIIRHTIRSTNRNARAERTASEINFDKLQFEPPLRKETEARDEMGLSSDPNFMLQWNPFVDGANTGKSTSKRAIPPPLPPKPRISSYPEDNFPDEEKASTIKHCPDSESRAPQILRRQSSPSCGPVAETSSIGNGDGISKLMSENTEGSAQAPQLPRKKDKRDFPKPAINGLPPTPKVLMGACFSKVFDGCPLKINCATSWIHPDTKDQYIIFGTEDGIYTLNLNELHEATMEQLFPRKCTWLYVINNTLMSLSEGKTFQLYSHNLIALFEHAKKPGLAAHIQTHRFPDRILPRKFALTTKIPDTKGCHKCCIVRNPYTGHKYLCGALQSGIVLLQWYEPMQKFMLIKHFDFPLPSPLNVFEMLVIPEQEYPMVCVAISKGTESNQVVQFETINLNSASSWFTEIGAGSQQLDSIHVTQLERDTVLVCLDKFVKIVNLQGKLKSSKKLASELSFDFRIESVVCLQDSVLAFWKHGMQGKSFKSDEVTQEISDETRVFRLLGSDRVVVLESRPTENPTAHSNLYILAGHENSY

[7] = molecular target: Mitogen-activated protein kinase kinase kinase 4 (Homo sapiens) (UniProt Q9Y6R4); assay: Inhibition of MAP3K4 conserved Lys2 (DIKGANIFLTSSGLIK) in human PBMC at 1 uM
Chain of Mitogen-activated protein kinase kinase kinase 4 (Homo sapiens) (Q9Y6R4 whole entry): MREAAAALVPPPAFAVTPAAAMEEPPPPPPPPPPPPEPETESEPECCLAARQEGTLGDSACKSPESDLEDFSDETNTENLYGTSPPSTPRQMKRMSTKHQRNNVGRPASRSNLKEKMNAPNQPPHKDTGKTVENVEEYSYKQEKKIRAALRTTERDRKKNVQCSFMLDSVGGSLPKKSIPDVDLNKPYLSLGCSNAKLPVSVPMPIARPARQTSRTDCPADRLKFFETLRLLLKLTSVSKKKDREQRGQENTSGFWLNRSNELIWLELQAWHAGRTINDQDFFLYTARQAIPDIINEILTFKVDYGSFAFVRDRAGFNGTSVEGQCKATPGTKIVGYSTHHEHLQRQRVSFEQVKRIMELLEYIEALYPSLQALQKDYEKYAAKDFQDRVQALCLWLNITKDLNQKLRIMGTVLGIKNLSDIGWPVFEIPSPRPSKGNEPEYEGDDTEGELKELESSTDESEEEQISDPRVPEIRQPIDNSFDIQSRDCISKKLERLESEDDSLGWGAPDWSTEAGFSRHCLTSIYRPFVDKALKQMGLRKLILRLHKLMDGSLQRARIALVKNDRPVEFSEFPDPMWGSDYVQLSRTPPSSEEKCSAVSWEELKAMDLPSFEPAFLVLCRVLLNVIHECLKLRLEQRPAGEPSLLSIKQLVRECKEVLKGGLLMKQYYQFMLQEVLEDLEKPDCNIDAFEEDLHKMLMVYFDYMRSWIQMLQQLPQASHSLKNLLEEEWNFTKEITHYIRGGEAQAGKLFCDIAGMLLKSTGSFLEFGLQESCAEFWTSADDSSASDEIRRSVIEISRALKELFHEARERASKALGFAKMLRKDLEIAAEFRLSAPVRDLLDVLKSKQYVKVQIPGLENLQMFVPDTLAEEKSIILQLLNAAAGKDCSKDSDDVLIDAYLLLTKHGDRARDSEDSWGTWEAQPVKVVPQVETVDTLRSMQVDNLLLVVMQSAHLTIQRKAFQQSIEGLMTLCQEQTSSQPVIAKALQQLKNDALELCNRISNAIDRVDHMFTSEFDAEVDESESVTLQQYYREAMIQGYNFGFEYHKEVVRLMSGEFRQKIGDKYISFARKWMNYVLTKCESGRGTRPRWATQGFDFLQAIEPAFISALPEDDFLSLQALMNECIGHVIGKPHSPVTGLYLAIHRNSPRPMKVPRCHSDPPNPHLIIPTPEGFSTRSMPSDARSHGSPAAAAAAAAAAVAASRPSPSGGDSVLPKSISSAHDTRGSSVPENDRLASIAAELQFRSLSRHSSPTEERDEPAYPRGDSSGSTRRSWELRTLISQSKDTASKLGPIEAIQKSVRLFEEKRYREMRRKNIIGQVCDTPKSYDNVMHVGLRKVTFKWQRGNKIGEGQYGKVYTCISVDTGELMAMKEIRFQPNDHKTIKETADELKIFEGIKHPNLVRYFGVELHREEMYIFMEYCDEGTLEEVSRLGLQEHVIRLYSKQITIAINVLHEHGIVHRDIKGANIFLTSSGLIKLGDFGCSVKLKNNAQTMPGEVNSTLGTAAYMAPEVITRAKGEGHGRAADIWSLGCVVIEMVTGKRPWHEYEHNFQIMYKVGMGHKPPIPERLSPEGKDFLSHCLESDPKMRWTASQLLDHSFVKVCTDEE

[8] = molecular target: 5'-AMP-activated protein kinase catalytic subunit alpha-2 (Homo sapiens) (UniProt P54646); assay: Inhibition of AMPKa2 labeling at conserved Lys1 (VAVKILNR) in human PBMC at 1 uM
[9] = molecular target: G protein-coupled receptor kinase 6 (Homo sapiens) (UniProt P43250); assay: Inhibition of GPRK6 conserved Lys2 (DLKPENILLDDHGHIR) in human PBMC at 1 uM
[10] = molecular target: Interferon-induced, double-stranded RNA-activated protein kinase (Homo sapiens) (UniProt P19525); assay: Inhibition of PKR activation Loop (IGDFGLVTSLKNDGKR) in human PBMC at 1 uM
[11] = molecular target: Serine/threonine-protein kinase Chk2 (Homo sapiens) (UniProt O96017); assay: Inhibition of CHK2 labeling at conserved Lys1 (VAIKIISK) in human PBMC at 0.1 uM
[12] = molecular target: Ribosomal protein S6 kinase alpha-1 (Homo sapiens) (UniProt Q15418); assay: Inhibition of RSK1 domain2 conserved Lys2 (DLKPSNILYVDESGNPECLR) in human PBMC at 1 uM
Chain of Ribosomal protein S6 kinase alpha-1 (Homo sapiens) (Q15418 whole entry, the tested form may be a part): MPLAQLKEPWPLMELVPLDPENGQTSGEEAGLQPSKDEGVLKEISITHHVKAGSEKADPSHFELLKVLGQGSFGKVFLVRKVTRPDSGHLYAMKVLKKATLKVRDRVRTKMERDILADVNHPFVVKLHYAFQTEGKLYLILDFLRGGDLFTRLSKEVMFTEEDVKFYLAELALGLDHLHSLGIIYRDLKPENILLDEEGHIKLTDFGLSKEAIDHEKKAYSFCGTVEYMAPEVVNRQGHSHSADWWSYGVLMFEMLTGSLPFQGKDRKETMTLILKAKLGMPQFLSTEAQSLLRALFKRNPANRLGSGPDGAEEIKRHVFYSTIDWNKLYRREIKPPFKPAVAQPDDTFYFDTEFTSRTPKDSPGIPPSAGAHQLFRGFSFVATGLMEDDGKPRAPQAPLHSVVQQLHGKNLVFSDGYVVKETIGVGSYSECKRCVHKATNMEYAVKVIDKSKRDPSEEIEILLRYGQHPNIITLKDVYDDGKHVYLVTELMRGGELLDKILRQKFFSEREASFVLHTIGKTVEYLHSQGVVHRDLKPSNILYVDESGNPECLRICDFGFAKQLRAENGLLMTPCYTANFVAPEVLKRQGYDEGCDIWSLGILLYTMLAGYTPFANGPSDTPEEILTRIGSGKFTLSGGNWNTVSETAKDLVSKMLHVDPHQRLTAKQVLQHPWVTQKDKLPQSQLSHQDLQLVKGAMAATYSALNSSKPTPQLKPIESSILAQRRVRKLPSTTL

[13] = molecular target: Mitogen-activated protein kinase kinase kinase kinase 2 (Homo sapiens) (UniProt Q12851); assay: Inhibition of GCK conserved Lys2 (DIKGANLLLTLQGDVK) in human PBMC at 0.1 uM
[14] = molecular target: Mitogen-activated protein kinase 12 (Homo sapiens) (UniProt P53778); assay: Inhibition of p38g conserved Lys2 (DLKPGNLAVNEDCELK) in human PBMC at 1 uM
[15] = molecular target: Serine/threonine-protein kinase 10 (Homo sapiens) (UniProt O94804); assay: Inhibition of LOK conserved Lys1 (NKETGALAAAKVIETK) in human PBMC at 1 uM
[16] = molecular target: RAC-beta serine/threonine-protein kinase (Homo sapiens) (UniProt P31751); assay: Inhibition of AKT2 labeling at ATP binding site (GTFGKVILVR) in human PBMC at 1 uM

Compound `CC(C)n1cc(-c2cc(-c3ccc(CN4CCOCC4)cc3)cnc2N)nn1` has an inhibition [1] of 13.1%, an inhibition [2] of 23.2% and an inhibition [3] of 10.8%. For the same compound, the inhibition [4] was 23.1%, the inhibition [5] was -6.7% and the inhibition [6] was 3.8%. It also gave an inhibition [7] of -0.5%, an inhibition [8] of 17.3% and an inhibition [9] of -10%. The inhibition [10] was -3.7%, the inhibition [11] was 9.7% and the inhibition [12] was -6%. It also gave an inhibition [13] of 10.9%, an inhibition [14] of 14% and an inhibition [15] of 32.2%. It also gave an inhibition [16] of 20.5%.
